The values below come from ChEMBL document CHEMBL1147729, “(+)-(2R,5S)-4-[4-cyano-3-(trifluoromethyl)phenyl]-2,5-dimethyl-N-[6-(trifluoromethyl)pyridin-3-yl]piperazine-1-carboxamide (YM580) as an orally potent and peripherally selective nonsteroidal androgen receptor antagonist” (J Med Chem, 2006).

A short description of series [1]: Cmax in rat ventral prostate at 3 mg/kg, po. Type of series: ADME, organism-based, Prostate gland. The arrangement: dose 3 mg/kg, route oral.
Series [2] is described as follows: AUC (0-72)hrs in rat plasma at 3 mg/kg, po. Type of series: ADME, organism-based. Details: time < 72 hr, dose 3 mg/kg, route oral.
Series [3] in a line: Oral clearance in rat at 3 mg/kg, po. Type of series: ADME, organism-based. Details: dose 3 mg/kg, route oral. The following applies: in vivo.
Series [4] can be described thus: AUC (0-72)hrs in rat ventral prostate at 3 mg/kg, po. The arrangement: time < 72 hr, dose 3 mg/kg, route oral. Type of series: ADME, organism-based, Prostate gland.
Series [5] can be described thus: Cmax in rat hypothalamus at 3 mg/kg, po. Type of series: ADME, organism-based. The arrangement: dose 3 mg/kg, route oral.
Series [6] relates to Rattus norvegicus. The series is described as follows: Effect on ventral prostate weight with reference to control in Wistar rat at 30 mg/kg/day, po. Type of series: functional. The following applies: Prostate gland.
A short description of series [7]: Half life in rat ventral prostate at 3 mg/kg, po. Type of series: ADME, organism-based, Prostate gland. The arrangement: dose 3 mg/kg, route oral.
Series [8] is described as follows: Cmax in rat plasma at 3 mg/kg, po. Type of series: ADME, organism-based. The arrangement: dose 3 mg/kg, route oral.
The nature of series [9]: AUC (0-72)hrs in rat hypothalamus at 3 mg/kg, po. The arrangement: time < 72 hr, dose 3 mg/kg, route oral. Type of series: ADME, organism-based.
Series [10] deals with T1, Glucocorticoid receptor (Homo sapiens, UniProt P04150).
T1 sequence (P04150 whole entry): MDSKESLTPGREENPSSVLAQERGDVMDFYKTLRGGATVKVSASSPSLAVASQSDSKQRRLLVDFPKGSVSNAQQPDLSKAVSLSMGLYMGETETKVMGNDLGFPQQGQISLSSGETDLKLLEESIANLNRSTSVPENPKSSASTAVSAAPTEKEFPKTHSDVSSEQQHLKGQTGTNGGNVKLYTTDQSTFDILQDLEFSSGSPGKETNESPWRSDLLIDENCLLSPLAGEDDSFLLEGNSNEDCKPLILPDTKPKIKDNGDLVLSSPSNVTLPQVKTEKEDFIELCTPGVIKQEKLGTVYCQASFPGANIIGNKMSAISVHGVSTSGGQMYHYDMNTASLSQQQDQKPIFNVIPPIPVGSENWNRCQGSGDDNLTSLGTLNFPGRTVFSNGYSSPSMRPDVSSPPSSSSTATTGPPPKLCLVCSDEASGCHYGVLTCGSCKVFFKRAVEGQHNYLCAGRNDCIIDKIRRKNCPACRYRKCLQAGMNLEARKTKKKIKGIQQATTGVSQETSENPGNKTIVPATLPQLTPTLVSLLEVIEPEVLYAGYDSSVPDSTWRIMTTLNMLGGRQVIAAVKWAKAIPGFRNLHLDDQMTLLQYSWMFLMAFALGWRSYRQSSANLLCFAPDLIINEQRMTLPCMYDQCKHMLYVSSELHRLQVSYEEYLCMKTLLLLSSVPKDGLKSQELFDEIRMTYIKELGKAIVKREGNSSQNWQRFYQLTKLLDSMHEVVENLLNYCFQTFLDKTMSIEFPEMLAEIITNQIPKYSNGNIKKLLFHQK
Kind of series: Inhibition of human GR.

Series [11] has as its target T2, Estrogen receptor (Homo sapiens, UniProt P03372).
T2 sequence (P03372 whole entry): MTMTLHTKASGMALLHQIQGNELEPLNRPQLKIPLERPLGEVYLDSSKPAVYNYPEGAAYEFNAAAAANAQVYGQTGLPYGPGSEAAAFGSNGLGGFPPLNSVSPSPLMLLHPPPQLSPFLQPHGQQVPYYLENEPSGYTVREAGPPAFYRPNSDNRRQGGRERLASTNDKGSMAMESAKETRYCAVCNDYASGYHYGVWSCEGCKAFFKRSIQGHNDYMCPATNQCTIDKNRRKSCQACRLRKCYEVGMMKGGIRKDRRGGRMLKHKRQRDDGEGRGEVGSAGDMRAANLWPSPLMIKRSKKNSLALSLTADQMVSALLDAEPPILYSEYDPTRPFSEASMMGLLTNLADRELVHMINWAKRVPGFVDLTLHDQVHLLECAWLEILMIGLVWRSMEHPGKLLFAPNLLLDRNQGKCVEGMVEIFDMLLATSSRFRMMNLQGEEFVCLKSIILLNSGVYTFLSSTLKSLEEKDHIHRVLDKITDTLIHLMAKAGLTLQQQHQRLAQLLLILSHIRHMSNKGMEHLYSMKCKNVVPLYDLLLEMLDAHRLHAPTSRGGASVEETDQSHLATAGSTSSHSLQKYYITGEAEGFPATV
The series is described as follows: Inhibition of human ERalpha.

Series [12] can be described thus: Half life in rat plasma at 3 mg/kg, po. Details: dose 3 mg/kg, route oral. Type of series: ADME, organism-based.
Series [13] relates to Rattus norvegicus. Kind of series: Effect on ventral prostate weight with reference to control in Wistar rat at 10 mg/kg/day, po. Type of series: functional, Prostate gland. The following applies: Rattus norvegicus, Wistar, Prostate gland.
Series [14] can be described thus: Oral clearance in rat ventral prostate at 3 mg/kg, po. Details: dose 3 mg/kg, route oral. Type of series: ADME, organism-based, Prostate gland.
For series [15], the target named is T3, Progesterone receptor (Rattus norvegicus, UniProt Q63449).
T3 sequence (Q63449 whole entry): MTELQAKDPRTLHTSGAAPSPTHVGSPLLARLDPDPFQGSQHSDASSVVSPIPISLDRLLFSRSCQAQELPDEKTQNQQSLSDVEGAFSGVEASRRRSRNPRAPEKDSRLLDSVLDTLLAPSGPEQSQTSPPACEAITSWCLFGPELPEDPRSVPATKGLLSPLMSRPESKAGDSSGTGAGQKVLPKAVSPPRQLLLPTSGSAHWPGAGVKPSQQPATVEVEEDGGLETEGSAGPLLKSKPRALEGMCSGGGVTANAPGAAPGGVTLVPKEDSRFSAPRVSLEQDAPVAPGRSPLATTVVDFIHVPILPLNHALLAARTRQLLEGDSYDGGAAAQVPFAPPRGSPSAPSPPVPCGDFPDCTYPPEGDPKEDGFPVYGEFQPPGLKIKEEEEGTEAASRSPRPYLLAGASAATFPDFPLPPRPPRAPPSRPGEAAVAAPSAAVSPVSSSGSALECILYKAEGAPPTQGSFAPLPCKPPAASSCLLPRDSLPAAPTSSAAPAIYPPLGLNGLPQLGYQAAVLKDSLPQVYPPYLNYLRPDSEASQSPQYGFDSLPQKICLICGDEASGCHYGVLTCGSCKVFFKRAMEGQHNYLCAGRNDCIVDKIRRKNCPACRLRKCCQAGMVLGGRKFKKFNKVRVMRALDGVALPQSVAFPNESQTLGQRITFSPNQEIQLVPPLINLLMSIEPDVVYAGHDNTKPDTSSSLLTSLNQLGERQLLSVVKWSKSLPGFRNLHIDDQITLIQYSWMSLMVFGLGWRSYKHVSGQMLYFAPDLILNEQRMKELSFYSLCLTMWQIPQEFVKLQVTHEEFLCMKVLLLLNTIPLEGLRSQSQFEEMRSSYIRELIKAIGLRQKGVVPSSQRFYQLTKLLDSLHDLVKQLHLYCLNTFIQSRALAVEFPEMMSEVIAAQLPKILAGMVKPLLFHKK
The series is described as follows: Inhibition of rat PR.

One may read the Cmax as the highest concentration seen after dosing. By AUC is commonly meant the area under the concentration-time curve, a measure of exposure. What is called CL/F is clearance divided by bioavailability, as obtained after extravascular dosing. As usually defined, the ED50 is the dose at which the effect has come halfway, by size or by number of responders. The half-life is how long it takes for the measured level to halve. The low end stands for rapid decline, the high end for slow decline. For orientation: Ki means the equilibrium dissociation constant of an inhibitor or competing ligand from its target. Read a low Ki as tighter binding. By inhibition in vivo is commonly meant the share of the control response that was lost under treatment. A low value points to a response near the control. Turning to `C[C@@H]1CN(c2ccc(C#N)c(C(F)(F)F)c2)[C@@H](C)CN1C(=O)Nc1ccc(C(F)(F)F)nc1` (racemic), the highest concentration (Cmax) in series [1] was determined as 1560 ng/mL; in [5], 96 ng/mL; in [8] it was 702 ng/mL. In addition, the figures for the AUC at 72 h in series [2], in [4] and in [9] were 22000 ng·h/mL, 43200 ng·h/mL and 2580 ng·h/mL, respectively. The CL/F in series [3] was 2.22 mL/min/kg; in series [14] it was 1.14 mL/min/kg. This molecule showed an ED50 in [6] of 2.2 mg/kg. For the same molecule, the half-life in series [7] was 11.2 h; in series [12], 12.5 h. Besides, the Ki in series [10] was above 100 µM; in series [11] it was above 100 µM; in [15], 3.3 µM. This molecule also registered an inhibition in vivo at 10 mg/kg/day in [13] of 67%.
